Read-outs that look alike come from different tables or passages of the source.
Columns and labels:
[1] = CSF/Plasma ratio determination, in-vivo pharmacokinetics mouse p.o.; set-up: species or system CD-1 male mice; settings: for CSF/plasma AUC ratio / AUC(0-t): male, CD-1, po; for AUC(0-t): plasma, read-out: Plasma AUC0-last
Method: CSF/Plasma Ratio Determination
Test compounds were administered to CD-1 male mice as a single oral dose of 10 or 20 mg/kg of a homogenous suspension (10 mL/kg, 1 or 2 mg/mL in 0.5% CMC (w/v) in water) by gavage using a plastic syringe fitted with a metal gavage tube. Terminal blood, brain and CSF samples were collected from three animals at several time points, typically at 2, 4, 8 and 24 h post-dose.
Blood samples were transferred into 1.5-mL plastic tubes containing K2-EDTA (0.5M, 3 uL) as an anti-coagulant and placed on wet ice, and were then processed to obtain plasma by centrifugation at approximately 5° C. (3000 g, 15 min) within 30 min after collection. An aliquot of 10 μL sample was protein precipitated with 150 μL IS, the mixture was vortex-mixed well and centrifuged at 13000 rpm for 10 min, 4° C. 30 μL supernatant was then mixed with 30 μL water, vortex-mixed well and centrifuged at 4° C. 2 μL sample was injected for LC-MS/MS analysis.
The collected CSF was transferred to polypropylene microcentrifuge tubes. CSF samples were added with an equal volume of plasma. An aliquot of 6 μL sample was protein precipitated with 90 μL IS, the mixture was vortex-mixed well and centrifuged at 13000 rpm for 10 min, 4° C. 30 μL supernatant was then mixed with 30 μL water, vortex-mixed well and centrifuged at 4° C. 2 μL sample was injected for LC-MS/MS analysis.
Test substance concentration in plasma and CSF versus time data were analyzed by non-compartmental approaches; AUC0-last in plasma and CSF were calculated with the log-linear trapezoidal rule. CSF/Plasma ratio was calculated as follows:
AUC0-last(CSF)/AUC0-last(plasma)

[2] = target: T1, Tau K18 aggregates (Tau K18 fragment, amino acids 244 to 372 of human Tau441) (Homo sapiens, UniProt P10636); test: Tau K18 disaggregation assay by ThT; type: biochemical; settings: 2 μM K18 aggregates, 160 to 0.04 μM compound, 30 min RT, ThT fluorescence
T1 construct: encompassing amino acids 244 to 372 of the longest isoform (2N4R) of human Tau441; host or cells: bacteria
T1 sequence (P10636 561-689): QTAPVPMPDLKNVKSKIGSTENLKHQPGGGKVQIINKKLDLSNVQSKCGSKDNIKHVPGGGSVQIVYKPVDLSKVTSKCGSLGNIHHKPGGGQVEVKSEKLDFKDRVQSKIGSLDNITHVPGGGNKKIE
Method: Tau K18 Disaggregation Assay by ThT
The Tau K18 fragment, encompassing amino acids 244 to 372 of the longest isoform (2N4R) of human Tau441, was expressed in bacteria and purified or bought from SignalChem. For the K18 disaggregation assay by ThT, 35 μM of recombinant K18 in PBS were aggregated for 24 hours at 37° C. in presence of 50 μM of heparin (Sigma-Aldrich) and 10 mM of DTT (Sigma-Aldrich) under shaking at 750 RPM. Compounds were dissolved in anhydrous dimethyl sulfoxide (DMSO, Sigma-Aldrich) to reach a concentration of 10 mM. K18 aggregates and serial dilutions of compounds were mixed together in PBS (volume 50 μL) to a final concentration of 2 μM of K18 aggregates and from 160 to 0.04 μM of compounds. The mixture was incubated for 30 minutes at room temperature (RT), then 40 μL of this mixture were transferred into a black 384-well plate assay (Perkin-Elmer) and mixed with 10 μL of 100 μM ThT in 250 mM glycine (both from Sigma-Aldrich) in PBS. Fluorescence (relative fluorescence units; RFU) was measured in monoplicate or duplicate on a Tecan reader (excitation: 440 nm; emission: 485 nm). Percentage of K18 disaggregation was then calculated and half maximal effective concentration (EC50) was determined using GraphPad Prism version 5 (GraphPad Software) assuming a one-binding site fitting model.

[3] = target: T2, full-length Tau (flTau, 2N4R) aggregates (Homo sapiens, UniProt P10636); test: Tau disaggregation assay by DLS (dynamic light scattering); type: biochemical; settings: 2 μM flTau aggregates, 20 μM compound, 60 min RT
T2 construct: 35 μM of recombinant full-length (fl)Tau in PBS were aggregated; made in house; host or cells: bacteria
T2 sequence (P10636 1-441 isoform P10636-8): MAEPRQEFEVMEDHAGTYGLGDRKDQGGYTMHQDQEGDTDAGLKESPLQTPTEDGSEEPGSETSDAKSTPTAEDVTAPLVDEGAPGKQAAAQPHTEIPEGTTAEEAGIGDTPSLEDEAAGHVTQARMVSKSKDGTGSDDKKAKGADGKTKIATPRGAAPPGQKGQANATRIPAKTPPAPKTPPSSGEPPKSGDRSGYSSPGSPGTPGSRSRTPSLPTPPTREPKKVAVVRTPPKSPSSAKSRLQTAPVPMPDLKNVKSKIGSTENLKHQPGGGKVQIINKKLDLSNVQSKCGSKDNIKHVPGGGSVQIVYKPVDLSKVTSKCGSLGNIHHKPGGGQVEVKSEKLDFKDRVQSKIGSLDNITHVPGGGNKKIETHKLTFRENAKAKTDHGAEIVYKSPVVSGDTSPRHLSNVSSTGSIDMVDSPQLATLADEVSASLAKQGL
Method: Tau disaggregation assay by DLS (dynamic light scattering)
The longest isoform of human Tau (2N4R; 441 amino acids) was expressed in bacteria. For the Tau disaggregation assay by DLS, 35 μM of recombinant full-length (fl)Tau in PBS were aggregated for 24 h at 37° C. in presence of 50 μM of heparin (Sigma-Aldrich) and 10 mM of DTT (Sigma-Aldrich) under shaking at 750 RPM. Morphomers™ were dissolved in DMSO (Sigma-Aldrich) to reach a concentration of 10 mM. flTau aggregates and compounds were mixed together in PBS (volume 80 μL) to a final concentration of 2 μM of flTau aggregates and 20 μM of Morphomers™. The mixture was incubated for 60 min at RT. Then […] of solution was transferred into a 40 μl cuvette (Malvern) and the size of flTau aggregates was measured with a Zetasizer Nano (Malvern) at an angle of 173° with 3 runs of 5 times 15 sec each. Number of events were taken into consideration to assess size of flTau aggregates. Percentage of disaggregation was then measured using the dynamic range between flTau monomers and flTau aggregates.

[4] = 20 mg/kg, AUC0-last(CSF)/AUC0-last(plasma)

SMILES	CSF AUC0-last ([1]; 20 mg/kg)	CSF/plasma AUC ratio [1, 4]	AUC(0-t) ([1]; 20 mg/kg)	EC50 [2]	CSF AUC0-last ([1]; 10 mg/kg)	CSF/plasma AUC ratio ([1]; 10 mg/kg, AUC0-last(CSF)/AUC0-last(plasma))	AUC(0-t) ([1]; 10 mg/kg)	DLS % Percentage of disaggregation (flTau) [3]	CSF/Plasma ratio [1, 4]
Fc1ccc2[nH]c3c(c2c1)CN(c1ccc2oc(N4CCOCC4)nc2c1)CC3 [Comparative Example 1]	121.03 ng·h/mL	0.007	17400 ng·h/mL	< 10 µM	–	–	–	–	–
Fc1ccc2c3c([nH]c2c1)CCN(c1ccc2oc(N4CCOCC4)nc2c1)C3 [Comparative Example 2]	56.70 ng·h/mL	0.003	17800 ng·h/mL	< 10 µM	–	–	–	–	–
Fc1cccc2[nH]c3c(c12)CN(c1ccc2oc(N4CCOCC4)nc2c1)CC3 [Comparative Example 3]	–	–	–	< 10 µM	19.705 ng·h/mL	0.004	4590 ng·h/mL	–	–
Fc1cccc2c3c([nH]c12)CCN(c1ccc2oc(N4CCOCC4)nc2c1)C3 [Comparative Example 4]	66.5 ng·h/mL	0.005	14500 ng·h/mL	< 10 µM	–	–	–	–	–
c1ccc2c3c([nH]c2c1)CCN(c1ccc2oc(N4CCOCC4)nc2c1)C3 [Example 1]	327.0 ng·h/mL	0.014	23700 ng·h/mL	< 10 µM	–	–	–	25%	highest CSF/plasma ratio
c1ccc2c3c([nH]c2c1)CCN(c1ccc2oc(N4CCOCC4)nc2n1)C3 [Example 5]	–	–	–	< 10 µM	–	–	–	–	–

— patent publication US20220127263A1, “Novel Compounds for the Treatment, Alleviation or Prevention of Disorders Associated with Tau Aggregates” (AC Immune SA, priority 2019, published 2022)
